What all share (type): biochemical
The subject of assay [1] is rabbit skeletal muscle myosin. Briefly: Inhibition of hydrolysis of ATP by rabbit skeletal muscle myosin. The method, then:
The purpose of this test was to evaluate the ability of compounds to inhibit the hydrolysis of ATP by rabbit skeletal muscle myosin. The determination method was as follows:
• Preformed F-actin filaments (#AKF99-B, Cytoskeleton) were diluted to 1 mg/mL with Reaction buffer (25 mM Tris-HCL, pH 7.5+35 mM KCl+0.1 mM EGTA+1 mM MgCl2); • Rabbit myosin (#MYO2-A, Cytoskeleton) was diluted to 0.1 mg/mL with Resuspension buffer (15 mM Tris-HCL, PH7.5+0.2 M KCl+1 mM MgCl2); • ATP (#BSA04-001, Cytoskeleton) was diluted to 3 mM working solution with 15 mM Tris-HCL (PH=7.5);
• adding 13 μL reaction buffer+12 μL F-actin to actin control wells; • adding 10 μL reaction buffer+12 μL F-actin+3 μL myosin II to positive control wells; • adding 10 μL of compound working solution+12 μL of F-actin+3 μL of myosin II to the compound wells; • adding 5 μL of ATP working solution to all test wells to start the reaction, and simultaneously adding a sample to the Pi standard wells according to the instruction (#BK054, Cytoskeleton); • gently mixing and accurately incubating at 37° C. for 60 min; • adding 70 μL of CytoPhos Reagent (#BK054, Cytoskeleton) to each well and incubating for 10 min to stop the reaction.
• the OD value of each well was detected at 650 nm using the endpoint method. The standard curve was fitted according to Pi concentration and OD value, and the Pi concentration of each test well was obtained. Inhibition (%)=(Pi positive control well-Pi test well)/Pi positive control well*100%. The Inhibition %-[…] curve was fitted with Graphpad Prism 8 software, and IC50 was calculated.

Assay [2] concerns the target T1, smooth muscle myosin S1 (Gallus gallus, UniProt P10587).
T1 construct: purchased Cytoskeleton #CS-MYS05
Nature of the assay: Inhibition of hydrolysis of ATP by smooth muscle myosin S1 fragments. As to conditions: for inhibition at 100 µM: 100 μM compound. How it is done:
The purpose of this test was to evaluate the ability of compounds to inhibit the hydrolysis of ATP by smooth muscle myosin Si fragments. The determination method was as follows: • 1. Solution formulation • F-actin polymer: Cardiac Actin powder (#CS-AD99, Cytoskeleton) was dissolved in a buffer (5 mM Pipes-KOH solution, PH=7.0, containing 100 μM ATP and 500 μM DTT) to form a 2 mg/mL solution and the solution was left at room temperature for 30 min; then 2 mM MgCl2 and 2 mM EGTA were added and the obtained system was left at room temperature for 40 min; • Smooth muscle SI fragment (#CS-MYS05, Cytoskeleton) was diluted with a pre-cooled PM12 buffer containing 1 mM DTT (12 mM Pipes-KOH solution, PH=7.0, containing 2 mM MgCl2) to form a 0.7 mg/mL solution; • ATP (#BSA04-001, Cytoskeleton) was diluted to 5 mM working solution with 15 mM Tris-HCL (PH=7.5); • 2. […] Experimental steps: • adding 10 μL of compound working solution+6 μL of F-actin polymer+4 μL of Smooth muscle Si fragment solution to the compound wells; • adding 10 μL of PM12 buffer containing DMSO+6 μL of F-actin polymer+4 μL of Smooth muscle S1 fragment solution to positive control wells; • adding 10 μL of PM12 buffer containing DMSO+6 μL of F-actin polymer+4 μL of PM12 buffer to negative control wells; • adding […] of 5 mM ATP working solution to all test wells to start the reaction, gently mixing and incubating at 37° C. for 20 min; • after the reaction was completed, taking 6 μLL of reaction liquid, adding 24 μL of PM12 buffer for 5-fold dilution, then detecting the content of the product Pi with a phosphate kit (#BK054, Cytoskeleton); • adding a standard according to the instructions, adding 70 μL of CytoPhos Reagent (#BK054, Cytoskeleton) to all wells and incubating at room temperature for 10 min before detection. • 4. Detection: • the OD value of each well was detected at 650 nm. The standard curve was fitted according to Pi standard concentration and OD value, and the Pi concentration of each test well was obtained. Inhibition (%)=(positive control well−test well)/positive control well*100%.

Assay [3] addresses T2, cardiac myosin SII (Bos taurus, UniProt Q9BE39).
T2 construct: purchased Cytoskeleton #MYO3-A
Nature of the assay: Inhibition of hydrolysis of ATP by cardiac myosin SII. The following applies: 100 μM compound. The method, then:
The purpose of this test was to evaluate the ability of compounds to inhibit the hydrolysis of ATP by cardiac myosin SII. The determination method was as follows: • 1. Solution formulation: • Preformed F-actin filaments (#AKF99-B, Cytoskeleton) were diluted to 1 mg/mL with Reaction buffer (15 mM Tris-HCL. PH7.5+10 mM KCl+0.1 mM EGTA+2 mM MgCl2); • Cardiac Muscle myosin (#MYO3-A, Cytoskeleton) was diluted to 1 mg/mL with Resuspension buffer (15 mM Tris-HCL, PH7.5+0.2M KCl+1 mM MgCl2); • ATP (#BSA04-001, Cytoskeleton) was diluted to 3 mM working solution with 15 mM Tris-HCL (PH=7.5); • 2. Formulation of working solution of compounds: the final compound concentration was 100 μM • 3. Experimental steps: • adding 10 μL of compound working solution+12 μL of Preformed F-actin filaments+3 μL of Cardiac Muscle myosin to the compound wells; • adding 10 μL of reaction buffer containing DMSO+12 μL Preformed F-actin filaments +3 μL Cardiac Muscle myosin to positive control wells; • adding 10 μL of reaction buffer containing DMSO+12 μL Preformed F-actin filaments +3 μL Resuspension buffer to negative control wells; • adding 5 μL of 3 mM ATP working solution to all test wells to start the reaction, gently mixing and incubating at 37° C. for 2 h; • after the reaction was completed, taking 6 μL of reaction liquid, adding 24 μL of reaction buffer for 5-fold dilution, then detecting the content of the product Pi with a phosphate kit (#BK054, Cytoskeleton); • adding a sample to Pi standard wells according to the instructions; • adding 70 μL of CytoPhos Reagent (#BK054, Cytoskeleton) to each well and incubating at room temperature for 10 min before detection. • 4. Detection: • the OD value of each well was detected at 650 nm. The standard curve was fitted according to Pi standard concentration and OD value, and the Pi concentration of each test well was obtained. Inhibition (%)=(positive control well−test well)/positive control well*100%.

Setting [4] is: inhibition of hydrolysis of ATP, class symbols, read-out: Rabbit skeletal muscle myosin (IC50).
Setting [5] is: read-out: IC50 for inhibition of hydrolysis of ATP by rabbit skeletal muscle myosin.

Structures are written as SMILES. Read-outs that look alike come from different tables or passages of the source.

T2 sequence (Q9BE39 whole entry): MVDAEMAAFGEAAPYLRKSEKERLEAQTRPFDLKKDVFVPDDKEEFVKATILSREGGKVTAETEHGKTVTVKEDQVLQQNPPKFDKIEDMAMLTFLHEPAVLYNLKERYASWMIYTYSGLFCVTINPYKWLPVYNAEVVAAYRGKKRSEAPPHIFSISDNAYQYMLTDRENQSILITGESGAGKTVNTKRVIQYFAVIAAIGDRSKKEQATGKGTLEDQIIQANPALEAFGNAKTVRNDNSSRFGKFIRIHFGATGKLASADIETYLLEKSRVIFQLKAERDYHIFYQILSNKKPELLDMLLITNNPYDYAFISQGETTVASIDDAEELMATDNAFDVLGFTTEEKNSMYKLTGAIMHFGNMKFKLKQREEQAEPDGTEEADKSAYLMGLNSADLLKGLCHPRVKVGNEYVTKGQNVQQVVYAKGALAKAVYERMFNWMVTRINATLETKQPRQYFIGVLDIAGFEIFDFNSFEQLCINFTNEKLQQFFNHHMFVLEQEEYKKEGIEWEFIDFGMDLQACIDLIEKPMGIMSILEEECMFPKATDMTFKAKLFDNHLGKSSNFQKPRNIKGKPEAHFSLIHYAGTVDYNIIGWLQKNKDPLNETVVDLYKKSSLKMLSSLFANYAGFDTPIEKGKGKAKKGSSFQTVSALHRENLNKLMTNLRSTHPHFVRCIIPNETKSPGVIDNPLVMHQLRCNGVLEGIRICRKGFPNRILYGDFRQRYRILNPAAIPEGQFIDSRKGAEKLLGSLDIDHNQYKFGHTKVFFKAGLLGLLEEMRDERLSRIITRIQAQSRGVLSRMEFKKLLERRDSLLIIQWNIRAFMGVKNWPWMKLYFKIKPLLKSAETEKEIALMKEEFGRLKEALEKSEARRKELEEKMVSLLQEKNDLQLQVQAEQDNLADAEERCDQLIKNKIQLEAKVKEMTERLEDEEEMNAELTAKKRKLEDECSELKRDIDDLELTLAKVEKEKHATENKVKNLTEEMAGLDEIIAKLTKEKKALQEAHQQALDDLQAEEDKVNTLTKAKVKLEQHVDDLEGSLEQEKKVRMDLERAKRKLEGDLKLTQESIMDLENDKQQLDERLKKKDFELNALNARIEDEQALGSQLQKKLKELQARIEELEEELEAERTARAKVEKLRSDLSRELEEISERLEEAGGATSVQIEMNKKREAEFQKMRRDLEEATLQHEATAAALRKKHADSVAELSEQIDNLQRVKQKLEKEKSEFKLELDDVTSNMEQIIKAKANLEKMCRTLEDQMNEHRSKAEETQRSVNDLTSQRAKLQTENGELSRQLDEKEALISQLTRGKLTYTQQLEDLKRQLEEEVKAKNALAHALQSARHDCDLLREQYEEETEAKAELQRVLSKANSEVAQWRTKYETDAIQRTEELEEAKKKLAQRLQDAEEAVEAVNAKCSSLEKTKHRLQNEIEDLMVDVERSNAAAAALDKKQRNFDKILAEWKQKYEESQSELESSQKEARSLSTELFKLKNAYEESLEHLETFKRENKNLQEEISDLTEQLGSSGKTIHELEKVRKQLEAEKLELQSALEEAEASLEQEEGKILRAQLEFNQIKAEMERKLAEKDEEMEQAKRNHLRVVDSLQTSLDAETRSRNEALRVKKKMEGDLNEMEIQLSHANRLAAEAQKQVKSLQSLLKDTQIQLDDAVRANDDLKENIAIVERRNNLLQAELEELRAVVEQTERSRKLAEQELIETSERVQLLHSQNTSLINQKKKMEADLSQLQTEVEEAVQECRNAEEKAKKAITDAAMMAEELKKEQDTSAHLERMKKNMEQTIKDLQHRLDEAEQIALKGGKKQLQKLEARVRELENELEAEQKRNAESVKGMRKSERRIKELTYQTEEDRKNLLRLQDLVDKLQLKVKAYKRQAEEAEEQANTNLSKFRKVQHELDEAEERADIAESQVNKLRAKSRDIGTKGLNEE
T2 sequence (P85100 whole entry partner): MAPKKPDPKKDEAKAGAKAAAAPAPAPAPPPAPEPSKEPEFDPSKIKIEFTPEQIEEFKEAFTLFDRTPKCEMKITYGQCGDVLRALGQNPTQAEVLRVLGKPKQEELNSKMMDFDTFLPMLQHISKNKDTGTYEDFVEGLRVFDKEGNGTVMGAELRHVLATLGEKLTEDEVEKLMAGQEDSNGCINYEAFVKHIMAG
T2 sequence (Q3SZE5 whole entry partner): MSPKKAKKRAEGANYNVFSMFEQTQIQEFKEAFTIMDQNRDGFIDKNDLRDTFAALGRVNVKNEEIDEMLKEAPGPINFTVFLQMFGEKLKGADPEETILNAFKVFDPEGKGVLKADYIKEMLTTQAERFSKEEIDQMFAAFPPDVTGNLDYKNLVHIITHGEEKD
T1 sequence (P10587 84-789 limits assumed): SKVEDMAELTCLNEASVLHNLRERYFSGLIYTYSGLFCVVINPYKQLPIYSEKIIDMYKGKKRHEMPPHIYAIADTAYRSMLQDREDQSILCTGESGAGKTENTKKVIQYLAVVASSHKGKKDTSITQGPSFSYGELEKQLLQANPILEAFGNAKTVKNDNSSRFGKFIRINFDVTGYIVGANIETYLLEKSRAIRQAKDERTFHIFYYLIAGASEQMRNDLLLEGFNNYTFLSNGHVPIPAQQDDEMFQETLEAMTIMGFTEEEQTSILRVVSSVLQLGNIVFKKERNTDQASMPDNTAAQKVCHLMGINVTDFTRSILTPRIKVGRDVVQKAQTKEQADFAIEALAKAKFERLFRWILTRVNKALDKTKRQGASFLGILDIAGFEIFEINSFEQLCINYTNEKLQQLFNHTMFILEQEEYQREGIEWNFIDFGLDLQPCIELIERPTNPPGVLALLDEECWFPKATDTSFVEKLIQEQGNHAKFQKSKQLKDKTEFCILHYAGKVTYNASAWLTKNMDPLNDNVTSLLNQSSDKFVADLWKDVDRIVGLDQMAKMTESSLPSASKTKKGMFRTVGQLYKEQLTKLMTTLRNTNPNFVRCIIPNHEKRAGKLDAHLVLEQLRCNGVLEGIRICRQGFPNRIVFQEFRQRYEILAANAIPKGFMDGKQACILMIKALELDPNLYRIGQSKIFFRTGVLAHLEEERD
T1 sequence (P02607 whole entry partner): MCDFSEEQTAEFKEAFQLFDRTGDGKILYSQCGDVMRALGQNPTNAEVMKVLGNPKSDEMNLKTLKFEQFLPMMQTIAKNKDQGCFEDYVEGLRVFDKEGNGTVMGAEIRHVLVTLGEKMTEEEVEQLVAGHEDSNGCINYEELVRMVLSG

Usually IC50 stands for the concentration at which inhibition is half-maximal. Broadly, the inhibition is the drop in the measured response relative to a control, in per cent. Turning to `O=c1ccc(-c2cnc(Oc3cncc(F)c3)nc2)nn1Cc1ccc2c(c1)CCC2` [Compound 115], the IC50 in assay [1] (setting [4]) was below 2500 nM. The inhibition at 100 µM in assay [2] and in assay [3] was 3% each time.
For `O=c1ccc(-c2cnc(OCC3(F)CCC3)nc2)nn1Cc1ccc2c(c1)CCC2` [Compound 113], the IC50 in assay [1] (setting [4]) is below 2500 nM. Besides, the inhibition at 100 µM in assay [2] was -13%; in assay [3] it was 0%.
`O=c1ccc(-c2cnc(Oc3cncc(Cl)c3)nc2)nn1Cc1ccc2c(c1)CCC2` [Compound 132]: the IC50 in assay [1] (setting [4]) was below 2500 nM; in assay [1] (setting [5]), 400 nM. Besides, the inhibition at 100 µM in assay [3] came out at 1%.
Consider `O=c1ccc(-c2cnc(C3CCC3)nc2)nn1Cc1ccc2c(c1)CC2` [Compound 109], for which the results for the concentration for half-maximal inhibition (IC50) in assay [1] (setting [4]) and in assay [1] (setting [5]) were below 2500 nM and 100 nM, respectively. In addition, the inhibition at 100 µM is -3.5% in assay [2] and 9.7% in assay [3].
With `N#CC1(COc2ncc(-c3ccc(=O)n(Cc4ccc5c(c4)CCC5)n3)cn2)CC1` [Compound 105], the IC50 in assay [1] (setting [4]) is below 2500 nM; in assay [1] (setting [5]), 900 nM. Moreover, the inhibition at 100 µM in assay [2] and in assay [3] was 16% each time.
On to `O=c1ccc(-c2cnc(OC3CCC(F)(F)CC3)nc2)nn1Cc1ccc2c(c1)CC2` [Compound 96], for which, in assay [1] (setting [4]), the IC50 fell in the range of 2500 to 20000 nM. Also, in assay [3], the inhibition at 100 µM was -9%.
Regarding `O=C1CCc2ccc(Cn3nc(-c4cnc(Oc5csc(C(F)(F)F)c5)nc4)ccc3=O)cc21` [Compound 155], in assay [1] (setting [4]), the IC50 was below 2500 nM. Also, the inhibition at 100 µM in assay [2] worked out at 5%; in assay [3], 1%.
For `O=c1cc2c(nn1Cc1ccc3c(c1)CC3)-c1cnc(OCC(F)(F)F)nc1CC2` [Compound 102], the IC50 was below 2500 nM in assay [1] (setting [4]) and 400 nM in assay [1] (setting [5]). The inhibition at 100 µM is -2% in assay [2] and -5% in assay [3].
As for `O=c1ccc(-c2cnc(C3CC(F)(F)C3)nc2)nn1Cc1ccc2c(c1)CCC2` [Compound 127], the IC50 in assay [1] (setting [4]) is below 2500 nM. Also, the results for the inhibition at 100 µM in assay [2] and in assay [3] were -6% and 8%, respectively.
In the case of `O=c1ccc(-c2cnc(OCC3CC3)nc2)nn1Cc1ccc2c(c1)CCC2` [Compound 80], the IC50 in assay [1] (setting [4]) was below 2500 nM; in assay [1] (setting [5]), 500 nM. The inhibition at 50 µM in assay [2] (@ 50 μM) stood at 9.3%. Moreover, the inhibition at 100 µM in assay [3] was -17.8%.
`O=C1CCc2c(Cl)cc(Cn3nc(-c4cnc(OCC(F)(F)F)nc4)ccc3=O)cc21` [Compound 166]: the IC50 in assay [1] (setting [4]) was below 2500 nM. The results for the inhibition at 100 µM in assay [2] and in assay [3] were 6% and 17%, respectively.
For the compound `O=c1ccc(-c2cnc(OCC(F)(F)F)nc2)nn1Cc1ccc2c(c1)CC1CC21` (stereo not drawn) [Compound 156], the IC50 in assay [1] (setting [4]) is below 2500 nM; in assay [1] (setting [5]), 900 nM. The inhibition at 100 µM in assay [2] is -11%; in assay [3] it was 7%.
Turning to `O=c1ccc(-c2cnc(OCC(F)(F)F)nc2)nn1Cc1ccc2c(c1)C(F)(F)CC2` [Compound 93], the IC50 in assay [1] (setting [4]) is below 2500 nM; in assay [1] (setting [5]), 700 nM. The inhibition at 100 µM in assay [2] is -14%; in assay [3], -16%.
On to `CN1CC(Oc2ncc(-c3ccc(=O)n(Cc4ccc5c(c4)CC5)n3)cn2)C1` [Compound 104], for which the IC50 in assay [1] (setting [4]) is below 2500 nM; in assay [1] (setting [5]), 800 nM. Also, the inhibition at 100 µM in assay [2] worked out at 20.7%; in assay [3], 8.9%.
Take `CC(F)(F)COc1ncc(-c2ccc(=O)n(Cc3ccc4c(c3)CCC4)n2)cn1` [Compound 110]: the IC50 in assay [1] (setting [4]) was below 2500 nM; in assay [1] (setting [5]), 800 nM. The inhibition at 100 µM is -6% in assay [2] and 1% in assay [3].
As for `O=c1ccc(-c2cnc(OCC(F)(F)F)nc2)nn1Cc1ccc2c(c1)CC1CC21` (stereo not drawn) [Compound 161], the IC50 in assay [1] (setting [4]) was below 2500 nM; in assay [1] (setting [5]) it was 500 nM. Further, the “Cardiac myosin SII (Inhibition @ 100 μM)” value in assay [3] (100 µM) is given as 5%.
As for `O=c1ccc(-c2cnc(OCCCCl)nc2)nn1Cc1ccc2c(c1)CC2` [Compound 70], in assay [1] (setting [4]), the IC50 was below 2500 nM. Also, the inhibition at 100 µM in assay [3] stood at 18%.

These data come from patent US20260217683A1, “PYRIDAZINONE HETEROCYCLIC COMPOUND MYOSIN II INHIBITOR AND USE THEREOF” (Xizang Haisco Pharmaceutical Co., Ltd., priority 2023, published 2026).
